In PMC6556873, “Rapid Covalent-Probe Discovery by Electrophile-Fragment Screening” (Journal of the American Chemical Society, 2019):
Read-outs that look alike come from different tables or passages of the source.

Experiments:
NUDT7 = molecular target: T1, NUDT7 (Homo sapiens, UniProt P0C024); design: Intact protein LC/MS covalent labelling, fragments in pools of five, 200 uM each, 4 °C; details: 24 h, 4 °C, pool of five; 200 µM; covalent
T1 construct: residues 14-235, E. coli, pNIC28-Bsa4, N-terminal His6 tag removed by TEV, construct 26672 Da

OTUB2 (OTUB2A) = molecular target: T2, OTUB2 (OTUB2A) (Homo sapiens, UniProt Q96DC9); design: Intact protein LC/MS covalent labelling, fragments in pools of five, 200 uM each, 4 °C; details: 24 h, 4 °C, pool of five; 200 µM; covalent
T2 construct: full length residues 1-234, E. coli BL21(DE3)-R3, His tag removed by TEV, construct 27312 Da
T2 sequence (Q96DC9 1-234): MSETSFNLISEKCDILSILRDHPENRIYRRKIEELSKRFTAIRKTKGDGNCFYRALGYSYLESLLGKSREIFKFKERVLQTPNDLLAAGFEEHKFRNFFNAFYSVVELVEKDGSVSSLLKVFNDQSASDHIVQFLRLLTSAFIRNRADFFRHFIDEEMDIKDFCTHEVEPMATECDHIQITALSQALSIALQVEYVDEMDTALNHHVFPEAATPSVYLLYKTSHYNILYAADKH

PCAF = molecular target: T3, PCAF (Homo sapiens, UniProt Q92831); design: Intact protein LC/MS covalent labelling, fragments in pools of five, 200 uM each, 4 °C; details: 24 h, 4 °C, pool of five; 200 µM; covalent
T3 construct: gene KAT2B

BSA = molecular target: T4, BSA (Bos taurus, UniProt P02769); design: Intact protein LC/MS covalent labelling, fragments in pools of five, 200 uM each, 4 °C; details: 24 h, 4 °C, pool of five; 200 µM; covalent
T4 construct: gene ALB

in vitro [1] = assay: in vitro; design: species or system HB2, CCD841; details: human, hek293 cells
in vitro [2] = assay: in vitro; design: species or system HB2, HEK293; details: human, ccd841 cells
in vitro [3] = assay: in vitro; design: species or system CCD841, HEK293; details: human, hb2 cells, read-out: HB-2 Cells Viability (%)

T3 sequence (Q92831 whole entry, the tested form may be a part): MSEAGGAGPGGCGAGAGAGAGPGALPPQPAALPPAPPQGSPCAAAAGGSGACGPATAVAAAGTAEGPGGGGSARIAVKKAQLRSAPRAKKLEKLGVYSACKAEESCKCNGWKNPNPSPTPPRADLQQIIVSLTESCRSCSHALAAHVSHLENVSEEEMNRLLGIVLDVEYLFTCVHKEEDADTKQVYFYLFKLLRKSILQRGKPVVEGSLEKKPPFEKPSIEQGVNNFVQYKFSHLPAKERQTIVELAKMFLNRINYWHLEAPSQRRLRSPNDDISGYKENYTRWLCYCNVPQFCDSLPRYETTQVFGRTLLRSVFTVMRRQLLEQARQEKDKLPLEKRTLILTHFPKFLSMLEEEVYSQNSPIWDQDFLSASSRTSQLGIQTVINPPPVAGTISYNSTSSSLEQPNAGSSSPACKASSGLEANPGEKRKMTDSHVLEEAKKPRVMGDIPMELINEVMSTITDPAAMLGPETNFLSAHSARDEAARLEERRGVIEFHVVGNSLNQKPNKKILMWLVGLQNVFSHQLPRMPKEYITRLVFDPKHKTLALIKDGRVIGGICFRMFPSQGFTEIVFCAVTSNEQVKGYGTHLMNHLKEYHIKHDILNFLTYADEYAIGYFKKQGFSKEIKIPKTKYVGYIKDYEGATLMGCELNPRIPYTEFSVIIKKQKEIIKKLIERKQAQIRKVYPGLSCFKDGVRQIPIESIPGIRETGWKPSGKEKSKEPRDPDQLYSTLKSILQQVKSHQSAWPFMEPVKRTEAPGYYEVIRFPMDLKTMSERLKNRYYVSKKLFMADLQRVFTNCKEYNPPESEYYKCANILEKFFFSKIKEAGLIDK
T4 sequence (P02769 whole entry, the tested form may be a part): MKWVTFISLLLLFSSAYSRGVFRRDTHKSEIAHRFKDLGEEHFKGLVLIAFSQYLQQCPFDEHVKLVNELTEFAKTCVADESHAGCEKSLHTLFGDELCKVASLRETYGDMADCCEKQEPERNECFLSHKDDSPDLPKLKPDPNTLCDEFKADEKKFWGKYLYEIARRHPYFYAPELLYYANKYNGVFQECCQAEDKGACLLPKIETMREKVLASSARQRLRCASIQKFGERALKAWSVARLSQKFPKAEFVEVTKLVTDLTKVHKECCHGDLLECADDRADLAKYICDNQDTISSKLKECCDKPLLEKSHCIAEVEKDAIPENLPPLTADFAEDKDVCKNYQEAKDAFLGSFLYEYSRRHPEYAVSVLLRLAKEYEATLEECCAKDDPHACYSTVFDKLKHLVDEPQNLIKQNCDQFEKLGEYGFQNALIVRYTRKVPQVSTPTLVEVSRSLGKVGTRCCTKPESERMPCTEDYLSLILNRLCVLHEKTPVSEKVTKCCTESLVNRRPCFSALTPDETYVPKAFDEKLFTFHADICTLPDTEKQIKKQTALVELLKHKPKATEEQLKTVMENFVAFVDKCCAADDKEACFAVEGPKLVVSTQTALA
T1 sequence (P0C024 14-235): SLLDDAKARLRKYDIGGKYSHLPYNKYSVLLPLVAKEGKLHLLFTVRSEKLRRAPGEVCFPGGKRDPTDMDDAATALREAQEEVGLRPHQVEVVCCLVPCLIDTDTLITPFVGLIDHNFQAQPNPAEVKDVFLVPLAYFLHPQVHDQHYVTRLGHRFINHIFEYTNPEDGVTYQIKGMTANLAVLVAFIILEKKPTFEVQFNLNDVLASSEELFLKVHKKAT

| Compound | NUDT7 (NUDT7) | OTUB2 (OTUB2 (OTUB2A)) | PCAF (PCAF) | BSA (BSA) | viability at 48 h, 10 µM (in vitro [1]) | viability at 48 h, 10 µM (in vitro [2]) | viability at 48 h, 10 µM (in vitro [3]) |
| --- | --- | --- | --- | --- | --- | --- | --- |
| C=CC(=O)N1CCCc2[nH]c3ccc(F)cc3c2C1 [PCM-0102485] | 0 | 0 | 0 | 0.12 | 105% | 106% | 95.2% |
| C=CC(=O)NC1CCc2cnn(C(C)C)c2C1 (centres unmarked) [PCM-0102487] | 0 | 0 | 0 | 0 | 97.7% | 120% | 95.5% |
| C=CC(=O)N1CCCN(S(=O)(=O)c2cccc3cnccc23)CC1 [PCM-0102491] | 0 | 0 | 0 | 0 | 99.9% | 100% | 99.3% |
| C=CC(=O)Nc1ccccc1OC [PCM-0102493] | 0 | 0 | 0 | 0 | 74.7% | 105% | 98.2% |
| O=C(CCl)NC(=O)NCc1ccco1 [PCM-0102494] | 0 | 0 | 0 | 0 | 86.6% | 85.4% | 75.2% |
| NC(=O)C1CCCN(C(=O)CCl)C1 (centres unmarked) [PCM-0102495] | 0 | 0 | 0 | 0 | 81.7% | 93% | 92.7% |
| Cl.O=C(CCl)NCc1cccnc1 [PCM-0102497] | 0 | 0.05 | 0 | 0 | 107% | 90.2% | 106% |
| CC12CCC(CC1=NNC(=O)CCl)C2(C)C (centres unmarked) [PCM-0102498] | 0 | 0 | 0 | 0 | 2.2% | 14.6% | 25.9% |
| C=CC(=O)Nc1ccc2c(c1)NC(=O)CO2 [PCM-0102499] | 0.1 | 0 | 0 | 0 | 71.7% | 108% | 104% |
| Cc1cc(NC(=O)CCl)no1 [PCM-0102500] | 0 | 0.35 | 0 | 0 | 60.3% | 73.3% | 66.8% |
| Cc1nn(-c2ccccc2)c(C)c1NC(=O)CCl [PCM-0102501] | 0.09 | 0.09 | 0 | 0 | 62.2% | 68.3% | 83.2% |
| CC(C)CNC(=O)NC(=O)CCl [PCM-0102502] | 0 | 0 | 0 | 0 | 52.7% | 80.7% | 78% |
| C=CC(=O)N1CCn2c(cc3ccc(Cl)cc32)C1 [PCM-0102503] | 0 | 0 | 0 | 0 | 74.4% | 102% | 98.2% |
| CC(C)NC(=O)NC(=O)CCl [PCM-0102504] | 0 | 0 | 0 | 0 | 66.9% | 81.5% | 92% |
| O=C(CCl)Nc1ccc(Br)cc1Cl [PCM-0102505] | 0.59 | 0.07 | 0 | 0 | 31.6% | 74.6% | 41.7% |
| O=C(CCl)Nc1ccccc1I [PCM-0102509] | 0 | 0 | 0 | 0.1 | 99.4% | 91.1% | 95.5% |
| O=C(CCl)NNC(=O)c1ccccc1F [PCM-0102510] | 0 | 0.52 | 0 | 0 | 93.1% | 72.7% | 98% |
